Experimental data reported in patent US8871753B2, “Macrocyclic compounds and their use as kinase inhibitors” (Incyte Corporation, priority 2008, dated 2014).
Blank lines part the entries; values can stand above or below the compound they belong to.

How the values were obtained:
Assay type in all cases: biochemical
[1] = target: T1, human JAK2 (a.a. 828-1132) (Homo sapiens, UniProt O60674); assay: In vitro JAK kinase assay (HTRF, phosphorylation of a biotinylated peptide), JAK2; details: method AA1 (30 μM ATP) or AA2 (1000 μM ATP), not stated per value
T1 construct: JAK2 (a.a. 828-1132); His tag (N); made in house; host or cells: insect cells (baculovirus)
T1 sequence (O60674 828-1132): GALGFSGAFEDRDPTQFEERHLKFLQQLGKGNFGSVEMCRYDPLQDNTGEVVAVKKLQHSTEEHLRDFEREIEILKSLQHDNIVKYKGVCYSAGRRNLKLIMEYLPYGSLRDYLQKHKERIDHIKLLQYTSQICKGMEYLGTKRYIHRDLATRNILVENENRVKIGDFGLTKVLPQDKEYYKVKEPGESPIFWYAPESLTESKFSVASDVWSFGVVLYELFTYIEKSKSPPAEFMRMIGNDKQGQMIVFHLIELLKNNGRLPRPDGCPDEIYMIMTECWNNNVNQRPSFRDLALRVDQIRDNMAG
Summary of the method: (§1)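 Phosphorylation of a biotinylated peptide by the JAK kinase domain, detected by HTRF with Eu-Py20 and SA-APC. ATP was 90 μM for JAK1, 30 μM for JAK2 and 3 μM for JAK3. Reactions ran 1 h at room temperature and were stopped with EDTA, followed by 40 min antibody binding.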

TYK2 = TYK2 (Homo sapiens, UniProt P29597); assay: TYK2 kinase inhibition (Table A1)
Chain of TYK2 (P29597 whole entry): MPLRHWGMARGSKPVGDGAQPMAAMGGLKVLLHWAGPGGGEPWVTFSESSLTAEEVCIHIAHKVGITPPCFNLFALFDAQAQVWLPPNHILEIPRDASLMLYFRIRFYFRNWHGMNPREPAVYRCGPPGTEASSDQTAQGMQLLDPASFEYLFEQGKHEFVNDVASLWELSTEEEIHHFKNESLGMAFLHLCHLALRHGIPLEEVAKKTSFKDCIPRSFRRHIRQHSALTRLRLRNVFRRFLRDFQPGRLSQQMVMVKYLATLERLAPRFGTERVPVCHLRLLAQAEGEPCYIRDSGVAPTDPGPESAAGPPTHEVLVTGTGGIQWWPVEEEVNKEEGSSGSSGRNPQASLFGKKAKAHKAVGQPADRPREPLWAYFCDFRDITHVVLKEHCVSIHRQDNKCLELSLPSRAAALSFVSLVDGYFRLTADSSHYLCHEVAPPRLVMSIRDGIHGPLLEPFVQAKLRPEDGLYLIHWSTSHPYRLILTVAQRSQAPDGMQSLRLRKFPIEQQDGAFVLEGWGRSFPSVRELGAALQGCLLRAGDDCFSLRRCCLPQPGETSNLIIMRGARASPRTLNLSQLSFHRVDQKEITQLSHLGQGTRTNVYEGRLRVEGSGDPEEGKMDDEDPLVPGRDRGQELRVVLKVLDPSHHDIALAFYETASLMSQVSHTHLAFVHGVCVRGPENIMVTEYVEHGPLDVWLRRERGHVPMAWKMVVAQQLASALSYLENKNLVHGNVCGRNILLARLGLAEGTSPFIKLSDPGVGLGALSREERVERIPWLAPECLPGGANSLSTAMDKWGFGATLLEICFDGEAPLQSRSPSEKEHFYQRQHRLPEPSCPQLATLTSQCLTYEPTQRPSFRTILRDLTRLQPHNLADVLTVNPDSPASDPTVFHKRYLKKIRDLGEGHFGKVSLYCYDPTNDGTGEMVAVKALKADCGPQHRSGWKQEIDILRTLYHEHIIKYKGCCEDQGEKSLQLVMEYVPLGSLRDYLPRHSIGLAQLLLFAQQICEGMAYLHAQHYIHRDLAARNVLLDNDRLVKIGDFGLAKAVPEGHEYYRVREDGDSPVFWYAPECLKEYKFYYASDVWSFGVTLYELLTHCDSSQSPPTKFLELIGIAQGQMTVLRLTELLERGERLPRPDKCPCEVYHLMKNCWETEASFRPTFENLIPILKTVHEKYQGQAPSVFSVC

[2] = target: T2, Recombinant Human Anaplastic Lymphoma Kinase (Homo sapiens, UniProt Q9UM73); assay: ALK HTRF kinase assay; details: compound at 500 nM or 1 mM; 90 μM ATP
T2 construct: purchased Invitrogen, Carlsbad, Calif
T2 sequence (Q9UM73 19-1620): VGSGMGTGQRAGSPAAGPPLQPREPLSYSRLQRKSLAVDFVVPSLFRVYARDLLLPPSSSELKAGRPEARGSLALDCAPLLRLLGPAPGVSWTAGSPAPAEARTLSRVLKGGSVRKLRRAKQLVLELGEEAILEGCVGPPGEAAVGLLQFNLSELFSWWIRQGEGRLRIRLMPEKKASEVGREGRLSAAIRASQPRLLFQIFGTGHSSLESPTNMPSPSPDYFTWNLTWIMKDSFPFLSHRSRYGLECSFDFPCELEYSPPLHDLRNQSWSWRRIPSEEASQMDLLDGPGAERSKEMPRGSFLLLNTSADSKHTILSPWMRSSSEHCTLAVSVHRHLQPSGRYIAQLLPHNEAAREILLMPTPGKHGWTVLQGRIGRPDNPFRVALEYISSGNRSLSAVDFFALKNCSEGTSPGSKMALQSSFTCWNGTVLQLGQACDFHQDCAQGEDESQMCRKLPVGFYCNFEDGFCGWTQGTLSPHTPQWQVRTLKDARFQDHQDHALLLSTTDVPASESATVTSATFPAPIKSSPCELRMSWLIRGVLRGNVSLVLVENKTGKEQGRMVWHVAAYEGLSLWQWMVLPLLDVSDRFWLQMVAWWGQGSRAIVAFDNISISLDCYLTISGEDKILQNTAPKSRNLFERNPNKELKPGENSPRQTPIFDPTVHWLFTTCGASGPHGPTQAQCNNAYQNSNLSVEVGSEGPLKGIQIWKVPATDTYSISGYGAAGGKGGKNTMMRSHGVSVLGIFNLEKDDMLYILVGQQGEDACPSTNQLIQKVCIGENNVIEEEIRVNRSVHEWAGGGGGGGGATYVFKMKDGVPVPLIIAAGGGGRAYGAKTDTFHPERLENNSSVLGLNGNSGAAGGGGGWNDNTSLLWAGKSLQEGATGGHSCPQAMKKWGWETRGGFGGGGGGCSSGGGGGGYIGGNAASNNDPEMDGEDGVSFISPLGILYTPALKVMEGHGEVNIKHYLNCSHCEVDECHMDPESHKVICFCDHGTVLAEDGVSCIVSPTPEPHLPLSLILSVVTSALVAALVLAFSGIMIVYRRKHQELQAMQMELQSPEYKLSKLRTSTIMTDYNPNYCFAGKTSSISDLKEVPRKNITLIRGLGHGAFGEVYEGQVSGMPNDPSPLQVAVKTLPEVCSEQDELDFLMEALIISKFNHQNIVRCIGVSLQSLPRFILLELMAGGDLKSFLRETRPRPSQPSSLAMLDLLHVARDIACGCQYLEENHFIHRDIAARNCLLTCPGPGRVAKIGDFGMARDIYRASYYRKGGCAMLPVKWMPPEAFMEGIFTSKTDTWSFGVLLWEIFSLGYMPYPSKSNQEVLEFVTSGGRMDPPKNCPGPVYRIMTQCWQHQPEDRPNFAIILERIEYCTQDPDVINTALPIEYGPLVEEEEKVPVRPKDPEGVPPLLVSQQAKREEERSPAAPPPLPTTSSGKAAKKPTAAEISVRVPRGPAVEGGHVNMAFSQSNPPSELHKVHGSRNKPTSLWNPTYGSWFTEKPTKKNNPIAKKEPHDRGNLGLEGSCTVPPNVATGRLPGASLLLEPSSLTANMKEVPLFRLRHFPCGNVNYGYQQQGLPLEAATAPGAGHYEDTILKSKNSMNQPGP
Summary of the method: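 IC50 was obtained from a logistic fit of signal versus log inhibitor concentration, using pre- and post-transition baselines and a Hill slope. The signal reported tyrosine phosphorylation of a biotinylated peptide by recombinant human kinase, detected as Eu-to-APC energy transfer.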

[3] = target: T3, human JAK1 (a.a. 837-1142) (Homo sapiens, UniProt P23458); assay: In vitro JAK kinase assay (HTRF, phosphorylation of a biotinylated peptide), JAK1; details: method AA1 (90 μM ATP) or AA2 (1000 μM ATP), not stated per value; read-out: JAK1 IC50
T3 construct: human JAK1 (a.a. 837-1142); His tag (N); made in house; host or cells: insect cells (baculovirus)
T3 sequence (P23458 849-1154): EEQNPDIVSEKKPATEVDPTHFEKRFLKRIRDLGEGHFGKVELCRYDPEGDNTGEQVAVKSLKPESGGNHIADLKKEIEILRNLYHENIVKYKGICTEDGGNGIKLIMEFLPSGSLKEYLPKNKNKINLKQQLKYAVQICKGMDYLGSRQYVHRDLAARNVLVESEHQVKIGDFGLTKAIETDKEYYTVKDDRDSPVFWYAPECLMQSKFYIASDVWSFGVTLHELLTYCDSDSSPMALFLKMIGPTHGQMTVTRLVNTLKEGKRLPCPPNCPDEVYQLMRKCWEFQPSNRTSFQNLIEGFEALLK
Summary of the method: as §1

[4] = target: T4, human JAK3 (a.a. 781-1124) (Homo sapiens, UniProt P52333); assay: In vitro JAK kinase assay (HTRF, phosphorylation of a biotinylated peptide), JAK3; details: method AA1 (3 μM ATP) or AA2 (1000 μM ATP), not stated per value
T4 construct: JAK3 (a.a. 781-1124); His tag (N); made in house; host or cells: insect cells (baculovirus)
T4 sequence (P52333 781-1124): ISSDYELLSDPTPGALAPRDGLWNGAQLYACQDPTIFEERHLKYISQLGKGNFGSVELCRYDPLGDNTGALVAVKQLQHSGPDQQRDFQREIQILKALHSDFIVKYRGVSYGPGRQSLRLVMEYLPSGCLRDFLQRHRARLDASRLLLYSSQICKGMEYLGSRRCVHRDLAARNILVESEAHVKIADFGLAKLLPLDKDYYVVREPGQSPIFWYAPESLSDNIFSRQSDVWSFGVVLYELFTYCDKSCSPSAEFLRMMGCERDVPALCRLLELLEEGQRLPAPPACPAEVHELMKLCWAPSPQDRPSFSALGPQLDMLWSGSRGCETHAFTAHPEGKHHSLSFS
Summary of the method: as §1

Structure (SMILES): CCS(=O)(=O)N1CCC(CC(=O)Nc2ccc3cc2CCc2cncc(c2)Nc2ncc(Cl)c(n2)N3)CC1 [Example A98, N-[6-Chloro-2,4,8,18,22-pentaazatetracyclo[14.3.1.1(3,7).1(9,13)]docosa-1(20),3(22),4,6,9(21),10,12,16,18-nonaen-12-yl]-2-[1-(ethylsulfonyl)piperidin-4-yl]acetamide bis(trifluoroacetate)]
IC50 [1]: 2.7 nM | IC50 (TYK2): 5.3 nM | ALK % of inhibition at a concentration of 500 nM or 1 mM [2]: 34% | IC50 [3]: 1 nM | IC50 [4]: 55 nM

Structure (SMILES): CNC(=O)N1CCC(CC(=O)Nc2ccc3cc2CCc2cncc(c2)Nc2ncc(Cl)c(n2)N3)CC1 [Example A100, 4-(2-{[6-Chloro-2,4,8,18,22-pentaazatetracyclo[14.3.1.1(3,7).1(9,13)]docosa-1(20),3(22),4,6,9(21),10,12,16,18-nonaen-12-yl]amino}-2-oxoethyl)-N-methylpiperidine-1-carboxamide bis(trifluoroacetate)]
IC50 [1]: 5.8 nM | IC50 (TYK2): 3 nM | ALK % of inhibition at a concentration of 500 nM or 1 mM [2]: 28% | IC50 [3]: 1.5 nM | IC50 [4]: 58 nM

Structure (SMILES): Cc1cc(C(=O)N2CCC(CC(=O)Nc3ccc4cc3CCc3cncc(c3)Nc3ncc(Cl)c(n3)N4)CC2)no1 [Example A101, N-[6-Chloro-2,4,8,18,22-pentaazatetracyclo[14.3.1.1(3,7).1(9,13)]docosa-1(20),3(22),4,6,9(21),10,12,16,18-nonaen-12-yl]-2-{1-[(5-methylisoxazol-3-yl)carbonyl]piperidin-4-yl}acetamide bis(trifluoroacetate)]
IC50 [1]: 10 nM | IC50 (TYK2): 3.4 nM | ALK % of inhibition at a concentration of 500 nM or 1 mM [2]: 29% | IC50 [3]: 0.5 nM | IC50 [4]: 128 nM

Structure (SMILES): O=C(CC1CCN(C(=O)c2cnccn2)CC1)Nc1ccc2cc1CCc1cncc(c1)Nc1ncc(Cl)c(n1)N2 [Example A102, N-[6-Chloro-2,4,8,18,22-pentaazatetracyclo[14.3.1.1(3,7).1(9,13)]docosa-1(20),3(22),4,6,9(21),10,12,16,18-nonaen-12-yl]-2-[1-(pyrazin-2-ylcarbonyl)piperidin-4-yl]acetamide tris(trifluoroacetate)]
IC50 [1]: 20 nM | IC50 (TYK2): 19 nM | ALK % of inhibition at a concentration of 500 nM or 1 mM [2]: 21% | IC50 [3]: 10 nM | IC50 [4]: 170 nM

The remaining compounds from weak to strong by IC50 [1], led by results:

IC50 [1]: 24 nM | IC50 (TYK2): 24 nM | ALK % of inhibition at a concentration of 500 nM or 1 mM [2]: 25% | IC50 [3]: 15 nM | IC50 [4]: 133 nM
Structure (SMILES): CC(C)NC(=O)N1CCC(CC(=O)Nc2ccc3cc2CCc2cncc(c2)Nc2ncc(Cl)c(n2)N3)CC1 [Example A99, 4-(2-{[6-Chloro-2,4,8,18,22-pentaazatetracyclo[14.3.1.1(3,7).1(9,13)]docosa-1(20),3(22),4,6,9(21),10,12,16,18-nonaen-12-yl]amino}-2-oxoethyl)-N-isopropylpiperidine-1-carboxamide bis(trifluoroacetate)]

IC50 [1]: 7.5 nM | IC50 (TYK2): 11 nM | ALK % of inhibition at a concentration of 500 nM or 1 mM [2]: 31% | IC50 [3]: 3.9 nM | IC50 [4]: 34 nM
Structure (SMILES): CC(C)S(=O)(=O)N1CCC(CC(=O)Nc2ccc3cc2CCc2cncc(c2)Nc2ncc(Cl)c(n2)N3)CC1 [Example A97, N-[6-Chloro-2,4,8,18,22-pentaazatetracyclo[14.3.1.1(3,7).1(9,13)]docosa-1(20),3(22),4,6,9(21),10,12,16,18-nonaen-12-yl]-2-[1-(isopropylsulfonyl)piperidin-4-yl]acetamide bis(trifluoroacetate)]

IC50 [1]: 6.6 nM | IC50 (TYK2): 11 nM | ALK % of inhibition at a concentration of 500 nM or 1 mM [2]: 26% | IC50 [3]: 4.5 nM | IC50 [4]: 80 nM
Structure (SMILES): CN(C)S(=O)(=O)N1CCC(CC(=O)Nc2ccc3cc2CCc2cncc(c2)Nc2ncc(Cl)c(n2)N3)CC1 [Example A96, N-[6-Chloro-2,4,8,18,22-pentaazatetracyclo[14.3.1.1(3,7).1(9,13)]docosa-1(20),3(22),4,6,9(21),10,12,16,18-nonaen-12-yl]-2-{1-[(dimethylamino)sulfonyl]piperidin-4-yl}acetamide bis(trifluoroacetate)]
